Source: publication PMC3351444, “Molecular Evolution of a Peptide GPCR Ligand Driven by Artificial Neural Networks” (PLoS ONE, 2012)
Like-named read-outs stand apart in the source and are kept apart here. Square brackets hold non-standard residues; d marks the D form. Peptide text beside a SMILES is read from it.

What was measured:
human CMKLR1 = molecular target: T1, human CMKLR1 (Homo sapiens, UniProt Q99788); assay: Ca2+ mobilization (CellLux imaging) agonist assay in HEK293A cells expressing CMKLR1 and Gα15; format: cell-based
T1 construct: host or cells: HEK293A (Invitrogen), stably expressing human Gα15
T1 sequence (Q99788 1-373): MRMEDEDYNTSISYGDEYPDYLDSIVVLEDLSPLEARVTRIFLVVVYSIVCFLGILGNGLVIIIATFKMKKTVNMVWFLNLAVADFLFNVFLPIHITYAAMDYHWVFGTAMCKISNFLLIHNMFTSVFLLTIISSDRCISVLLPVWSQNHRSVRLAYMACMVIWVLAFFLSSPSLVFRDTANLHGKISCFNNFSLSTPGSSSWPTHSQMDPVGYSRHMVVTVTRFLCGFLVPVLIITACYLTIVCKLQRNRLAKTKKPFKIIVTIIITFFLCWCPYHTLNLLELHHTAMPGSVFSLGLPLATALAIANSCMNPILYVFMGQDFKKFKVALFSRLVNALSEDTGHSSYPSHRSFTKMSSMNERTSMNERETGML
How it was run: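 Agonist-evoked Ca2+ rise, read as FLUO4-AM fluorescence by imaging, in HEK293A cells carrying CMKLR1 plus Gα15. Peptides were diluted in C1 solution (pH 7.4) containing 0.1% BSA. Duplicate signals were averaged, corrected for buffer wells and normalized to background, and EC50 was fitted from amplitude versus concentration.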

[1] = In vitro peptide stability in human serum (RP-HPLC); details: for half-life at 50 µg/mL: human; for t1/2: metabolic stability in human serum
[2] = Ca2+ mobilization, CMKLR1, decimal comma
[3] = Ca2+ mobilization, CMKLR1, decimal comma, NR where no EC50 is given, read-out: EC50

Structure (SMILES)	max response (human CMKLR1; [2])	EC50 (human CMKLR1; [3])	half-life at 50 µg/mL ([1]; human serum, 25% (v/v) in RPMI)	t1/2 [1]	EC50 (human CMKLR1)	half-life at 50 µg/mL ([1]; serum)
C[C@H](NC(=O)[C@H](Cc1ccccc1)NC(=O)[C@H](C)NC(=O)[C@@H](N)Cc1ccccc1)C(=O)N[C@@H](Cc1ccccc1)C(=O)N[C@H](CO)C(=O)N[C@@H](Cc1ccccc1)C(=O)N[C@@H](C)C(=O)N[C@@H](Cc1ccc(O)cc1)C(=O)O [compound 117] (H-FAFAF[dS]FAY-OH; N-terminus assumed)	0,87 DF/F0	4450 nM	0.433 h	–	–	–
CC(C)C[C@H](NC(=O)[C@@H](N)Cc1ccc(O)cc1)C(=O)N1CCC[C@H]1C(=O)N[C@H](CO)C(=O)N[C@@H](CCC(N)=O)C(=O)N[C@@H](Cc1ccc(O)cc1)C(=O)N[C@@H](C)C(=O)N[C@@H](Cc1ccccc1)C(=O)N[C@H](Cc1ccccc1)C(=O)O [compound 119] (H-YLP[dS]QYAF[dF]-OH; N-terminus assumed)	1,62 DF/F0	–	–	–	0.31 nM	1.05 h
CC(C)C[C@H](NC(=O)[C@H](N)Cc1ccc(O)cc1)C(=O)N1CCC[C@H]1C(=O)N[C@H](CO)C(=O)N[C@@H](CCC(N)=O)C(=O)N[C@@H](Cc1ccc(O)cc1)C(=O)N[C@@H](C)C(=O)N[C@@H](Cc1ccccc1)C(=O)N[C@H](Cc1ccccc1)C(=O)O [compound 120] (H-[dY]LP[dS]QYAF[dF]-OH; N-terminus assumed)	1,97 DF/F0	–	–	–	–	28.2 h
CC(C)C[C@H](NC(=O)[C@H](N)Cc1ccc(O)cc1)C(=O)N1CCC[C@H]1C(=O)N[C@H](CO)C(=O)N[C@@H](CCC(N)=O)C(=O)N[C@@H](Cc1ccc(O)cc1)C(=O)N[C@@H](C)C(=O)N[C@@H](Cc1ccccc1)C(=O)N[C@H](CO)C(=O)O [compound 121] (H-[dY]LP[dS]QYAF[dS]-OH; N-terminus assumed)	1,6 DF/F0	–	–	23.47 h	–	–
CC(C)C[C@H](NC(=O)[C@@H](N)Cc1ccc(O)cc1)C(=O)N1CCC[C@H]1C(=O)NCC(=O)N[C@@H](CCC(N)=O)C(=O)N[C@@H](Cc1ccc(O)cc1)C(=O)N[C@H](Cc1c[nH]c2ccccc12)C(=O)N[C@@H](Cc1ccccc1)C(=O)N[C@H](Cc1ccccc1)C(=O)O [compound 122] (H-YLPGQY[dW]F[dF]-OH; N-terminus assumed)	1,54 DF/F0	–	–	2.65 h	–	–
CC(C)C[C@H](NC(=O)[C@@H](N)Cc1ccc(O)cc1)C(=O)N1CCC[C@H]1C(=O)N[C@H](CCC(N)=O)C(=O)N[C@@H](CCC(N)=O)C(=O)N[C@@H](Cc1ccc(O)cc1)C(=O)N[C@@H](C)C(=O)N[C@@H](Cc1ccccc1)C(=O)N[C@H](Cc1ccccc1)C(=O)O [compound 123] (H-YLP[dQ]QYAF[dF]-OH; N-terminus assumed)	1,74 DF/F0	–	–	1.45 h	–	–
CC(C)C[C@H](NC(=O)[C@@H](N)Cc1ccc(O)cc1)C(=O)N1CCC[C@H]1C(=O)N[C@H](C)C(=O)N[C@@H](CCC(N)=O)C(=O)N[C@@H](Cc1ccc(O)cc1)C(=O)N[C@@H](C)C(=O)N[C@@H](Cc1ccccc1)C(=O)N[C@H](CO)C(=O)O [compound 124] (H-YLP[dA]QYAF[dS]-OH; N-terminus assumed)	1,75 DF/F0	–	–	1.83 h	–	–
C[C@H](N)C(=O)N[C@@H](Cc1ccccc1)C(=O)NCC(=O)N[C@H](Cc1ccccc1)C(=O)N[C@H](CCC(N)=O)C(=O)N[C@@H](CO)C(=O)N[C@@H](C)C(=O)N[C@@H](Cc1ccc(O)cc1)C(=O)N[C@@H](CO)C(=O)O [compound 134] (H-AFG[dF][dQ]SAYS-OH; N-terminus assumed)	1,37 DF/F0	69.4 nM	0.167 h	–	–	–
CC(C)C[C@H](NC(=O)[C@H](C)NC(=O)[C@H](Cc1ccc(O)cc1)NC(=O)[C@@H](CCC(N)=O)NC(=O)CNC(=O)[C@@H]1CCCN1C(=O)[C@H](CC(C)C)NC(=O)[C@@H](N)Cc1ccc(O)cc1)C(=O)N[C@H](Cc1ccccc1)C(=O)O [compound 135] (H-YLPG[dQ]YAL[dF]-OH; N-terminus assumed)	1,48 DF/F0	72.2 nM	0.667 h	–	–	–
CC(C)C[C@H](NC(=O)[C@H](C)NC(=O)[C@H](Cc1ccc(O)cc1)NC(=O)[C@@H](Cc1ccc(O)cc1)NC(=O)CNC(=O)[C@@H]1CCCN1C(=O)[C@H](CC(C)C)NC(=O)[C@@H](N)Cc1ccc(O)cc1)C(=O)N[C@H](Cc1ccccc1)C(=O)O [compound 136] (H-YLPG[dY]YAL[dF]-OH; N-terminus assumed)	1,4 DF/F0	75 nM	1.62 h	–	–	–
NC(=O)CC[C@H](NC(=O)CNC(=O)[C@@H]1CCCN1C(=O)[C@@H](Cc1ccc(O)cc1)NC(=O)[C@H](Cc1ccc(O)cc1)NC(=O)[C@H](CCC(N)=O)NC(=O)[C@H](N)Cc1ccccc1)C(=O)N[C@@H](Cc1ccc(O)cc1)C(=O)N[C@@H](Cc1ccc(O)cc1)C(=O)O [compound 137] (H-[dF]QY[dY]PGQYY-OH; N-terminus assumed)	1,42 DF/F0	103 nM	1.8 h	–	–	–

Continued, in another order:

max response (human CMKLR1; [2])	EC50 (human CMKLR1; [3])	half-life at 50 µg/mL ([1]; human serum, 25% (v/v) in RPMI)	t1/2 [1]	Structure (SMILES)	EC50 (human CMKLR1)	half-life at 50 µg/mL ([1]; serum)
1,69 DF/F0	14.3 nM	0.7 h	–	CC(C)C[C@H](NC(=O)[C@@H](N)Cc1ccc(O)cc1)C(=O)N1CCC[C@H]1C(=O)NCC(=O)N[C@@H](CCC(N)=O)C(=O)N[C@@H](Cc1ccc(O)cc1)C(=O)N[C@@H](C)C(=O)N1CCC[C@@H]1C(=O)N[C@H](Cc1ccccc1)C(=O)O [compound 125] (H-YLPGQYA[dP][dF]-OH; N-terminus assumed)	–	–
1,33 DF/F0	21 nM	0.783 h	–	CC(C)C[C@H](NC(=O)[C@@H](N)Cc1ccc(O)cc1)C(=O)N1CCC[C@H]1C(=O)NCC(=O)N[C@@H](CCC(N)=O)C(=O)N[C@@H](Cc1ccc(O)cc1)C(=O)N[C@H](Cc1c[nH]c2ccccc12)C(=O)N1CCC[C@H]1C(=O)N[C@H](Cc1ccccc1)C(=O)O [compound 126] (H-YLPGQY[dW]P[dF]-OH; N-terminus assumed)	–	–
1,52 DF/F0	35.6 nM	2.07 h	–	CC(C)C[C@H](NC(=O)[C@@H](N)Cc1ccc(O)cc1)C(=O)N1CCC[C@H]1C(=O)N[C@H](Cc1c[nH]c2ccccc12)C(=O)N[C@@H](CCC(N)=O)C(=O)N[C@@H](Cc1ccc(O)cc1)C(=O)N[C@@H](C)C(=O)N[C@@H](Cc1ccccc1)C(=O)N[C@H](Cc1ccccc1)C(=O)O [compound 127] (H-YLP[dW]QYAF[dF]-OH; N-terminus assumed)	–	–
1,45 DF/F0	38.7 nM	8 h	–	CC(C)C[C@H](N)C(=O)N[C@H](Cc1c[nH]c2ccccc12)C(=O)NCC(=O)NCC(=O)N1CCC[C@H]1C(=O)N[C@@H](Cc1ccc(O)cc1)C(=O)N[C@H](Cc1c[nH]c2ccccc12)C(=O)N[C@@H](Cc1ccc(O)cc1)C(=O)N[C@H](CO)C(=O)O [compound 128] (H-L[dW]GGPY[dW]Y[dS]-OH; N-terminus assumed)	–	–
1,1 DF/F0	41.7 nM	0.533 h	–	CC(C)C[C@@H](NC(=O)[C@H](CCCNC(=N)N)NC(=O)[C@@H](N)Cc1ccc(O)cc1)C(=O)NCC(=O)N[C@@H](CCC(N)=O)C(=O)N[C@@H](Cc1ccc(O)cc1)C(=O)N[C@H](Cc1c[nH]c2ccccc12)C(=O)N[C@H](CC(=O)O)C(=O)N[C@H](Cc1ccccc1)C(=O)O [compound 129] (H-YR[dL]GQY[dW][dD][dF]-OH; N-terminus assumed)	–	–
1,72 DF/F0	43.5 nM	3.58 h	–	CC(C)C[C@H](NC(=O)[C@@H](N)Cc1ccc(O)cc1)C(=O)N1CCC[C@H]1C(=O)N1CCC[C@@H]1C(=O)N1CCC[C@H]1C(=O)N[C@@H](Cc1ccc(O)cc1)C(=O)N[C@@H](C)C(=O)N[C@@H](Cc1ccccc1)C(=O)N[C@H](Cc1ccccc1)C(=O)O [compound 130] (H-YLP[dP]PYAF[dF]-OH; N-terminus assumed)	–	–
1,67 DF/F0	53.2 nM	9.18 h	–	CC(C)C[C@H](N)C(=O)N[C@H](Cc1c[nH]c2ccccc12)C(=O)NCC(=O)NCC(=O)N1CCC[C@H]1C(=O)N[C@@H](Cc1ccc(O)cc1)C(=O)N[C@@H](C)C(=O)N[C@H](CC(=O)O)C(=O)N[C@@H](CO)C(=O)O [compound 131] (H-L[dW]GGPYA[dD]S-OH; N-terminus assumed)	–	–
1,82 DF/F0	55.7 nM	1.95 h	–	CC(C)C[C@H](NC(=O)CN)C(=O)N[C@@H](CCC(N)=O)C(=O)N[C@H](CCC(N)=O)C(=O)N[C@@H](Cc1ccccc1)C(=O)N[C@@H](Cc1ccc(O)cc1)C(=O)N[C@H](Cc1c[nH]c2ccccc12)C(=O)NCC(=O)N[C@H](Cc1ccccc1)C(=O)O [compound 132] (H-GLQ[dQ]FY[dW]G[dF]-OH; N-terminus assumed)	–	–
1,62 DF/F0	67.4 nM	0.333 h	–	NC(=O)CC[C@H](NC(=O)CNC(=O)[C@@H]1CCCN1C(=O)[C@H](Cc1ccccc1)NC(=O)[C@H](N)Cc1ccc(O)cc1)C(=O)N[C@@H](Cc1ccc(O)cc1)C(=O)N[C@H](Cc1c[nH]c2ccccc12)C(=O)N[C@@H](Cc1ccccc1)C(=O)N[C@H](Cc1ccccc1)C(=O)O [compound 133] (H-[dY]FPGQY[dW]F[dF]-OH; N-terminus assumed)	–	–
